Data from PubChem BioAssay AID1205 (EPA DSSTox, 2008).
The source made the active and inactive calls.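 Rule for the calls: active = tumour findings in long-term animal cancer tests in more than one sex, species or organ; inactive = no tumour finding and more than one negative test.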

Test: DSSTox (CPDBAS) Carcinogenic Potency Database Summary MultiCellCall Results
Details: animal carcinogenicity bioassays, multi-cell call summary
Summary of the method: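 Summary call drawn from chronic long-term cancer bioassays in rats, mice, hamsters, dogs and nonhuman primates, using the most positive result per sex-species. Score: multispecies=50, multisex=30, multisite=20, summed for combinations.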
For `Cc1cc(N=Nc2ccccc2C)ccc1N`, the outcome was “active; multisex active”. With `CC(C)[N+](=O)[O-]` the outcome was “inactive; multisex inactive”. For `Nc1ccccc1`, the outcome was “active; multisite active; multisex active”. With `CCCCCCc1ccc(O)cc1O` the outcome was “inactive; multisex inactive; multispecies inactive”. With `COC(N)=O` the outcome was “active; multisex active”. For `CC=O`, the outcome was “active; multisite active; multisex active; multispecies active”. For `CN[C@H]1CC[C@@H](c2ccc(Cl)c(Cl)c2)c2ccccc21`, the outcome was “inactive; multisex inactive; multispecies inactive”. In the case of `CC(C)(Oc1ccc(C2CCCc3ccccc32)cc1)C(=O)O` (configuration not stated), the outcome is reported as “active; multisite active; multisex active”. With `COc1ccc2c3c1O[C@H]1[C@@H](O)C=C[C@H]4[C@@H](C2)N(C)CC[C@@]341` the outcome was “inactive; multisex inactive; multispecies inactive”. With `c1ccc2ccccc2c1` the outcome was “active; multisite active; multisex active; multispecies active”. With `CN(C)CCN(Cc1ccco1)c1ccccn1` the outcome was “inactive; multisex inactive”. In the case of `Cc1ncc([N+](=O)[O-])n1CCO`, the outcome is reported as “active; multisite active; multisex active; multispecies active”. For `Nc1ccc(N=Nc2ccc(N)cc2)cc1`, the outcome was “inactive; multisex inactive”. For `ClC1=C(Cl)[C@]2(Cl)[C@@H]3[C@H]4C[C@H]([C@@H]5O[C@H]45)[C@@H]3[C@@]1(Cl)C2(Cl)Cl`, the outcome was “inactive; multisex inactive; multispecies inactive”. For `CCN=[N+]([O-])CC`, the outcome was “active; multisite active”. For `COc1ccc(C(=O)Nc2c(Cl)cncc2Cl)cc1OC1CCCC1`, the outcome was “active; multisex active”. In the case of `CNC(=O)CSP(=S)(OC)OC`, the outcome is reported as “inactive; multisex inactive; multispecies inactive”. For `O=c1cc(CO)occ1O`, the outcome was “active; multisex active”. For `CC(C)NCC(O)c1ccc(NS(C)(=O)=O)cc1` (configuration not stated), the outcome was “inactive; multisex inactive; multispecies inactive”. For `COc1ccc(CCN2CCC(Nc3nc4ccccc4n3Cc3ccc(F)cc3)CC2)cc1`, the outcome was “inactive; multisex inactive; multispecies inactive”. For `O=NN1CCOCC1`, the outcome was “active; multisite active; multisex active; multispecies active”. In the case of `CN(N=O)c1ccc(/C=C/c2ccnc3ccccc23)cc1`, the outcome is reported as “active; multisex active”. For `O=c1ccc2ccccc2o1`, the outcome was “active; multisite active; multisex active; multispecies active”. For `C[C@]12CC[C@H](O)CC1=CC[C@@H]1[C@@H]2CC[C@]2(C)C(=O)CC[C@@H]12`, the outcome was “active; multisex active”. In the case of `COc1cc(-c2ccc(N)c(OC)c2)ccc1N`, the outcome is reported as “active; multisite active; multisex active; multispecies active”. For `C=C/C=N/O`, the outcome was “inactive; multisex inactive”. For `O=NN(CCO)CCO`, the outcome was “active; multisite active; multisex active”. With `CCOC(=O)C(O)(c1ccc(Cl)cc1)c1ccc(Cl)cc1` the outcome was “active; multisex active”. In the case of `O=c1c(O)c(-c2ccc(O)cc2)oc2cc(O)cc(O)c12`, the outcome is reported as “inactive; multisex inactive”. With `Cc1cc(C)c(N)cc1C` the outcome was “active; multisite active; multisex active; multispecies active”. With `CCN=c1cc2oc3cc(NCC)c(C)cc3c(-c3ccccc3C(=O)OCC)c-2cc1C` the outcome was “inactive; multisex inactive; multispecies inactive”. In the case of `ClC(Cl)=C(c1ccc(Cl)cc1)c1ccc(Cl)cc1`, the outcome is reported as “active; multisex active; multispecies active”. In the case of `O=C(O)CCCc1ccc(N(CCCl)CCCl)cc1`, the outcome is reported as “active; multisite active; multisex active; multispecies active”. With `C[C@]12CC[C@H](OS(=O)(=O)O)CC1=CC[C@@H]1[C@@H]2CC[C@]2(C)C(=O)CC[C@@H]12` the outcome was “inactive; multisex inactive”. For `OCC(CO)N[C@H]1C[C@](O)(CO)[C@@H](O)[C@H](O)[C@H]1O`, the outcome was “inactive; multisex inactive; multispecies inactive”. For `Cc1cc2ncccc2c2nc(N)n(C)c12`, the outcome was “active; multisite active; multisex active”. With `Nc1ccc([N+](=O)[O-])cc1N` the outcome was “inactive; multisex inactive; multispecies inactive”. For `Cc1ccc(O)c(O)c1`, the outcome was “active; multisex active”. In the case of `COC(=O)C(c1ccccc1)C1CCCCN1` (configuration not stated), the outcome is reported as “active; multisex active”. For `C=CC(OCC)OCC`, the outcome was “inactive; multisex inactive”. For `FC(F)OC(Cl)C(F)(F)F` (configuration not stated), the outcome was “inactive; multisex inactive”. With `Cc1ccccc1N=O` the outcome was “active; multisite active”. For `O=[As]O`, the outcome was “inactive; multispecies inactive”. In the case of `COC(=O)C(C)(C)Oc1ccc(-c2ccc(Cl)cc2)cc1`, the outcome is reported as “active; multisite active; multisex active; multispecies active”. With `CCCCN(CCCC)C(=S)[S-].CCCCN(CCCC)C(=S)[S-].[Zn+2]` the outcome was “inactive; multisex inactive”. For `Nc1ccc(-c2ccc(F)cc2)cc1`, the outcome was “active; multisex active”. With `NNc1nc(-c2ccc([N+](=O)[O-])cc2)cs1` the outcome was “active; multisite active; multispecies active”.
